Data set [1] deals with Vero. Briefly: Cytotoxicity against African green monkey Vero cells after 48 hrs by MTT assay. It is filed as cell-based. As to conditions: Chlorocebus sabaeus.
A short description of data set [2]: Selectivity index, ratio of IC50 for African green monkey Vero cells to IC50 for Trypanosoma cruzi Tulahuen 2 epimastigotes. It is filed as toxicity, cell-based. The note with it: read-out: Ratio IC50.
Data set [3] has as its system Trypanosoma cruzi. The data set can be described thus: Trypanocidal activity against Trypanosoma cruzi Tulahuen 2 epimastigotes after 5 days. As to conditions: Tulahuen 2, 120 h. It is filed as functional, organism-based.
Data set [4] has as its system Trypanosoma cruzi. The data set can be described thus: Trypanocidal activity against Trypanosoma cruzi Tulahuen 2 epimastigotes at 25 uM after 5 days. The note with it: Tulahuen 2, 120 h. Format: functional.

As to `O=C(c1ccc(F)cc1)c1c(C(F)(F)F)[n+]([O-])c2cc(F)c(F)cc2[n+]1[O-]`, the IC50 worked out at 3 µM in data set [1] and 0.6 µM in data set [3]. The selectivity ratio in data set [2] amounted to 5. Moreover, in data set [4], at 25 µM the inhibition was 91.8%.
For the molecule `O=C(c1ccc(F)cc1)c1c(C(F)(F)F)[n+]([O-])c2ccc(Cl)cc2[n+]1[O-]`, in data set [3], the IC50 was determined as 1 µM. The inhibition at 25 µM in data set [4] turned out to be 86.1%.
The like results for `CC(C)C(=O)c1c(C(F)(F)F)[n+]([O-])c2cc(N(C)C)c(N3CCOCC3)cc2[n+]1[O-]` were, in that order, 10.7 µM and 86%.
For the molecule `O=C(c1ccc(F)cc1)c1c(C(F)(F)F)[n+]([O-])c2ccc(F)cc2[n+]1[O-]`, the IC50 in data set [1] was determined as 4.4 µM; in data set [3], 1.1 µM. Also, the selectivity ratio in data set [2] amounted to 4. The molecule further yielded an inhibition at 25 µM in data set [4] of 95.6%.
`O=C(c1ccco1)c1c(C(F)(F)F)nc2cc(Cl)c(N3CCOCC3)cc2[n+]1[O-]`: the IC50 amounted to 455 µM in data set [1] and 12.1 µM in data set [3]. Besides, the selectivity ratio in data set [2] was found to be 37.6. In addition, in data set [4], the inhibition at 25 µM amounted to 91.7%.
As to `CC(C)C(=O)c1c(C(F)(F)F)[n+]([O-])c2cc(N3CCOCC3)c(N3CCOCC3)cc2[n+]1[O-]`, in data set [3], the half-maximal inhibitory concentration (IC50) came to 17 µM. The molecule also displayed an inhibition at 25 µM in data set [4] of 66.3%.
As to `O=C(c1ccc(F)cc1)c1c(C(F)(F)F)[n+]([O-])c2cc(Cl)c(Cl)cc2[n+]1[O-]`, in data set [3], the IC50 was determined as 1.3 µM. The molecule further showed an inhibition at 25 µM in data set [4] of 89.3%.
`CC(=O)c1c(C(F)(F)F)[n+]([O-])c2cc(F)c(N3CCSCC3)cc2[n+]1[O-]` showed an IC50 in data set [3] of 2 µM. The inhibition at 25 µM in data set [4] was 83.4%.
As for `CC(=O)c1c(C(F)(F)F)[n+]([O-])c2cc(F)c(N3CCC(N4CCOCC4)CC3)cc2[n+]1[O-]`, the IC50 in data set [3] worked out at 5.3 µM. This molecule registered an inhibition at 25 µM in data set [4] of 93.4%.
The like results for `CC(=O)c1c(C(F)(F)F)[n+]([O-])c2cc(F)c(N3CCOCC3)cc2[n+]1[O-]` were, in that order, 6.4 µM and 100%.
Turning to `CC(=O)c1c(C(F)(F)F)[n+]([O-])c2cc(N3CCCCC3)c(N3CCCCC3)cc2[n+]1[O-]`, the IC50 was determined as 4.5 µM in data set [1] and 2.3 µM in data set [3]. In data set [2], the selectivity ratio is 1.7. The inhibition at 25 µM in data set [4] is 100%.
For the molecule `CCOC(=O)c1c(C(F)(F)F)nc2cc(Cl)c(N3CCOCC3)cc2[n+]1[O-]`, the IC50 in data set [3] is greater than 25 µM. In data set [4], this molecule came in with an inhibition at 25 µM of 54.6%.
Molecule `CC(=O)c1c(C(F)(F)F)[n+]([O-])c2cc(N3CCC(O)CC3)c(N3CCC(O)CC3)cc2[n+]1[O-]` displayed an IC50 in data set [3] greater than 25 µM. The molecule also displayed an inhibition at 25 µM in data set [4] of 15.7%.
As for `CC(=O)c1c(C(F)(F)F)[n+]([O-])c2cc(F)c(N3CCCCC3)cc2[n+]1[O-]`, the IC50 in data set [1] came to 15.2 µM; in data set [3] it was 2.6 µM. Further, in data set [2], the selectivity ratio is 5.8. In data set [4], this molecule showed an inhibition at 25 µM of 96.9%.
The molecule `CC(=O)c1c(C(F)(F)F)[n+]([O-])c2cc(F)c(N3CCC(O)CC3)cc2[n+]1[O-]` had an IC50 in data set [3] of 6.3 µM. Further, the inhibition at 25 µM in data set [4] is 84.9%.
For the molecule `O=C(Cn1ccnc1[N+](=O)[O-])NCc1ccccc1` [BENZNIDAZOLE], in data set [3], the IC50 worked out at 8 µM. The molecule further displayed an inhibition at 25 µM in data set [4] of 100%.
In data set [4], `CC1CS(=O)(=O)CCN1/N=C/c1ccc([N+](=O)[O-])o1` (stereo not drawn) [NIFURTIMOX] yielded an inhibition at 25 µM of 100%.

By IC50 is commonly meant the concentration that gives 50% inhibition. As usually defined, the inhibition is the relative decrease from the control value, in per cent.

Source of the values: ChEMBL document CHEMBL3751782, “Synthesis and biological evaluation of quinoxaline di-N-oxide derivatives with in vitro trypanocidal activity” (Bioorg Med Chem Lett, 2016).
